Patent publication US7053234B2 (Amgen Inc., priority 2000, dated 2006)
Converted amounts (≈) assume the structure as drawn.

Columns and labels:
[1] = tested on: B. su; assay: MIC determination, B. su; type: cell-based; details: Table 1, 16 hours at 37° C. in LB medium, read-out: B. su (bacterial MIC)
Procedure: (§1) For MIC determinations for selected bacteria, log phase growing bacteria are re-suspended at 1×10^5 bacteria per mL in LB medium. The compound is added and two-fold dilutions are made. The final volume in the 96-well plate is about 100 uL. The plate is incubated at 37° C. in the dark with shaking. After 16 hours of incubation, growth is monitored by reading A600 or by visual inspection. MIC is defined as the minimum concentration of drug resulting in inhibition of visible growth of bacterial under the conditions described (above) in National Committee for Clinical Laboratory Standards 1993. Methods for dilution antimicrobial susceptibility tests for bacteria that grow aerobically. Approved standard M7-A3; National Committee for Clinical Laboratory Standards: Villanova, Pa.

[2] = tested on: E. coli (tolC); assay: MIC determination, E. coli (tolC); type: cell-based; details: Escherichia coli, 16 h, read-out: E. c(tolC) (bacterial MIC)
Procedure: as §1

[3] = tested on: S. aureus; assay: MIC determination, S. aureus; type: cell-based; details: Staphylococcus aureus; Table 1; MIC, 16 hours at 37° C. in LB medium; read-out: S. au (bacterial MIC)
Procedure: The compound is added and two-fold dilutions are made. The final volume in the 96-well plate is about 100 uL. The plate is incubated at 37° C. in the dark with shaking. After 16 hours of incubation, growth is monitored by reading A600 or by visual inspection. […] Methods for dilution antimicrobial susceptibility tests for bacteria that grow aerobically. Approved standard M7-A3; National Committee for Clinical Laboratory Standards: Villanova, Pa.

[4] = target: T1, Sigma^70 saturated E. coli RNA Polymerase (Escherichia coli, UniProt P0A8T7+P0A8V2); assay: RNA polymerase inhibition assay (E. coli enzyme); type: biochemical; details: Table 1; enzyme not named, method uses E. coli RNA polymerase; read-out: IC50
T1 construct: purchased Epicenter
Procedure: The compounds of the present invention can be evaluated for antibacterial activity in a variety of assay formats known to those of skill in art. The specific assays used to select the most appropriate compound for use will typically depend on the targeted bacteria or infection. One common assay involves evaluation of the compounds as RNA polymerase inhibitors. In this assay, buffer (250 mM KCl, 5% Glycerol, 10 mM MgCl2, 0.1 mg/ml BSA) is combined with 6 mM B-M.E., PT5 DNA template, and 1.3 ug/rxn Sigma^70 saturated E. coli RNA Polymerase (Epicenter). The compound is then added in a manner not to exceed 5% DMSO. Nucleotide triphosphates are then added at the following concentration: 250 uM ATP, […] and UTP with 100 uM cold CTP and 50 uM alpha ^32P CTP. The mixture is incubated for 10 min at about 37° C. A [2×] loading buffer is added and the mixture is then run on a 6% urea denaturing PAGE until bromophenol blue reaches the edge of plate. The gel is soaked (about 20 minutes in 10% MeOH and 10% acetic acid, to remove urea), then dried (about 55 minutes at about 85° C. (BioRad Gel Drier)) and exposed to a Phospho Imaging Plate for 1 hour. The plate is then read on a Fujix Bas1000 Imaging System and quantified using MacBas v2.0 software. An IC50 (in uM) can be calculated as the concentration of a drug which reduces the enzyme activity to 50% of the control.

T1 sequence (P0A8V2 whole entry): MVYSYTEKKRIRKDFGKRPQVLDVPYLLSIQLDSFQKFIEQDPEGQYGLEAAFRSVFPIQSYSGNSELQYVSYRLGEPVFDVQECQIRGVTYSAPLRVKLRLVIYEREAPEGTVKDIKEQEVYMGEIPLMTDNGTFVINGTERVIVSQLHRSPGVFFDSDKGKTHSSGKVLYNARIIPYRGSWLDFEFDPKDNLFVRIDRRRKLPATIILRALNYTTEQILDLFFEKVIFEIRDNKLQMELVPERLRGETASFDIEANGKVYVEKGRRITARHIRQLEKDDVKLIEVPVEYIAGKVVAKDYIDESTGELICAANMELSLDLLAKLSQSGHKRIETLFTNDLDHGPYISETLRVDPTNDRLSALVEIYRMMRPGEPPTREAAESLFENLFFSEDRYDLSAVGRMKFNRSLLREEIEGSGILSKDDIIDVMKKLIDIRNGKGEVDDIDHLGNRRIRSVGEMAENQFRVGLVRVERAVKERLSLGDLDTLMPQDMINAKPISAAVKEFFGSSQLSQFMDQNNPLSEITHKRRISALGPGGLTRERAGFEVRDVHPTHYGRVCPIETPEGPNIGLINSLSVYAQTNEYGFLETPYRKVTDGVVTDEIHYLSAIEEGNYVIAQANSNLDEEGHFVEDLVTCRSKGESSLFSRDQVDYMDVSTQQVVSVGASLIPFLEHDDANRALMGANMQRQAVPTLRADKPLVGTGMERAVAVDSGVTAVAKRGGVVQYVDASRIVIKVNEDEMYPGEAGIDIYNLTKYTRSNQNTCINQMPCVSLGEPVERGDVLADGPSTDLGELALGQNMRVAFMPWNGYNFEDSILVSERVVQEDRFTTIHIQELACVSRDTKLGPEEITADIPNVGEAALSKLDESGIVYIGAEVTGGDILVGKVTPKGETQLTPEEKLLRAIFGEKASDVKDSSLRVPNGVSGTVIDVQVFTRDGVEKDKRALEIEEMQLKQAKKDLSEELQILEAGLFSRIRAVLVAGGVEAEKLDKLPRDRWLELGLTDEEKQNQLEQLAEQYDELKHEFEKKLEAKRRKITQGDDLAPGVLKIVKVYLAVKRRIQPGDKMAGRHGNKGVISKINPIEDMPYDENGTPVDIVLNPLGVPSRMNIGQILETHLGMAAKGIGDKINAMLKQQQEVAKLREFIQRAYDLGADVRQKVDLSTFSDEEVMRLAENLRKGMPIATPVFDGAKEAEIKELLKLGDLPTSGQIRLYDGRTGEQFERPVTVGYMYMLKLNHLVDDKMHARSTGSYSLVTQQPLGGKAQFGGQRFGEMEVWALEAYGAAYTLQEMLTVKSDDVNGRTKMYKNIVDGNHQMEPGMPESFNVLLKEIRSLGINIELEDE
T1 sequence (P0A8T7 whole entry): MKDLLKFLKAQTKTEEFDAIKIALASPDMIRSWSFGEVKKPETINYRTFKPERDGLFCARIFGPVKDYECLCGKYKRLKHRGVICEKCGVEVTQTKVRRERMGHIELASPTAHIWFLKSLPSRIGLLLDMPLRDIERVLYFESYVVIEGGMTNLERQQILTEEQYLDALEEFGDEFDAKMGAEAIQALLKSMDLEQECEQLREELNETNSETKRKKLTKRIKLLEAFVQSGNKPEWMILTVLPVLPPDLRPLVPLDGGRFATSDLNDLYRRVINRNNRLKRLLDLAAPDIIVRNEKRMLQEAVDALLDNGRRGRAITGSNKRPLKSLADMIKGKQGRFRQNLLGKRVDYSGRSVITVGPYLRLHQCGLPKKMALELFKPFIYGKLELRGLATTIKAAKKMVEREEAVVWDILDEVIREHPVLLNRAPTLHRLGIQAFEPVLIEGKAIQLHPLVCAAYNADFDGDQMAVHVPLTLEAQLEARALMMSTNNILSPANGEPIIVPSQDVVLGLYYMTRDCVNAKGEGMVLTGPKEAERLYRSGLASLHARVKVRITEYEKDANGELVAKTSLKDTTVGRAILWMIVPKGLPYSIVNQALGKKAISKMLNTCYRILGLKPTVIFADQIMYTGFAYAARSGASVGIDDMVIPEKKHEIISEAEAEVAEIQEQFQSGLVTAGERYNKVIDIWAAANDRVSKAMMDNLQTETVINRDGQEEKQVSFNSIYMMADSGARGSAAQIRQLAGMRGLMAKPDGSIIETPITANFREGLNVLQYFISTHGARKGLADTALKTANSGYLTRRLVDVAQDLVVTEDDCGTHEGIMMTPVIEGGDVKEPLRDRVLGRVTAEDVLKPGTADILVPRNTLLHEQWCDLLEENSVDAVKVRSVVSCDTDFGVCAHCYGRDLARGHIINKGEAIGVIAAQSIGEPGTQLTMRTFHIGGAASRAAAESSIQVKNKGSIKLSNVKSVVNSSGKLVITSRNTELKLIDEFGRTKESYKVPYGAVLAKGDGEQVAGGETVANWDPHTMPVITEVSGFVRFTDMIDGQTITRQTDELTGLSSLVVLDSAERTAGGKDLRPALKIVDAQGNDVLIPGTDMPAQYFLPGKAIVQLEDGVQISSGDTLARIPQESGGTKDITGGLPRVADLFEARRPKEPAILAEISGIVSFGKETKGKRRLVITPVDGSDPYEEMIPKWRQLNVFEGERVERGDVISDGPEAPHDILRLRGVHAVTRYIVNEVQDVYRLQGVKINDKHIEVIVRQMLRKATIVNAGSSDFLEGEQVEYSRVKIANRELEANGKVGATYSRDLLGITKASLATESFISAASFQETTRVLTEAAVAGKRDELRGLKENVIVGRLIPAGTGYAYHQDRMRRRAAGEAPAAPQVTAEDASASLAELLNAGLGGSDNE
T1 sequence (P0A7Z4 whole entry partner): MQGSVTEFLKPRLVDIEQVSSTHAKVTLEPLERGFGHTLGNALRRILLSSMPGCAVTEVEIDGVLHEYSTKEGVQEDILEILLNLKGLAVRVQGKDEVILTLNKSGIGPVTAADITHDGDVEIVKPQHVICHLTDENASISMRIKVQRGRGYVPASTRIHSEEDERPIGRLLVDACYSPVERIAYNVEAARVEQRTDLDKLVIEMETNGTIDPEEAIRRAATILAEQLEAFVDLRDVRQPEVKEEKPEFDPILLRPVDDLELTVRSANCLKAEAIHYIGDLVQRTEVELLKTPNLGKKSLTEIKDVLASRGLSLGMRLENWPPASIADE
T1 sequence (P0A800 whole entry partner): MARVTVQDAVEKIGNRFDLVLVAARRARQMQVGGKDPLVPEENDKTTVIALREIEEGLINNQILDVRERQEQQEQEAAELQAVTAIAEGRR
T1 sequence (P00579 whole entry partner): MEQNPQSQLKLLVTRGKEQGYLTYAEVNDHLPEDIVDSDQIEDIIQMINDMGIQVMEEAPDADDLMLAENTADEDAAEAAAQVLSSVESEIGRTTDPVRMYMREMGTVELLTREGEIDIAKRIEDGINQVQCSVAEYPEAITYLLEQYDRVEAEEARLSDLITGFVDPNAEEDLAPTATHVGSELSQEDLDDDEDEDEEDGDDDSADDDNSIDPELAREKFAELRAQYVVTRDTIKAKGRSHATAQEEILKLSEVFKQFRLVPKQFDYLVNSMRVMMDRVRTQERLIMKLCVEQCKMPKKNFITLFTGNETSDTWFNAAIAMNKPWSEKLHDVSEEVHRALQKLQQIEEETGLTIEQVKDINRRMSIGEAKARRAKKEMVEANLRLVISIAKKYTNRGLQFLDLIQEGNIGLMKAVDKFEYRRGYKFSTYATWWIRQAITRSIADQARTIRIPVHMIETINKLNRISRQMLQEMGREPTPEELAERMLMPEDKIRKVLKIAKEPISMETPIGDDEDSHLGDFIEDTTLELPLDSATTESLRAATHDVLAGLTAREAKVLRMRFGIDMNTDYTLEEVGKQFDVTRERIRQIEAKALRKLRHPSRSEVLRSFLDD

Question: Which MIC [1] does the source give for `N#Cc1cccc(NC(=NO)c2cccc(C(F)(F)F)c2)c1` [R′=3-CF3, R″=H, R′″=3-CN] here?
Answer: The MIC was > 125 µM.

Question: And the MIC [2]?
Answer: The MIC was 40 to 125 µM (≈ 12.2 to 38.2 µg/mL).

Question: What about the MIC [3] of the same compound?
Answer: The MIC was > 125 µM.

Question: What about the IC50 [4] of the same compound?
Answer: The IC50 was > 50 µM.

Question: With `ON=C(Nc1cccc(Cl)c1)c1cccc(OC(F)(F)F)c1` [R′=3-OCF3, R″=H, R′″=3-Cl] as the compound, how does the MIC [1] read?
Answer: The MIC was < 40 µM.

Question: What about the MIC [2] of the same compound?
Answer: Its MIC is < 40 µM.

Question: What about the MIC [3] of the same compound?
Answer: The MIC was 40 to 125 µM (≈ 13.2 to 41.3 µg/mL).

Question: What about the IC50 [4] of the same compound?
Answer: The IC50 was 10 to 50 µM.

Question: How did the MIC [1] turn out when `ON=C(Nc1ccccc1)c1ccc(F)c(C(F)(F)F)c1` [Example 16] was run?
Answer: The MIC was 40 to 125 µM (≈ 11.9 to 37.3 µg/mL).

Question: And the MIC [2]?
Answer: The MIC was < 40 µM.

Question: And the MIC [3]?
Answer: Its MIC is > 125 µM.

Question: What about the IC50 [4] of the same compound?
Answer: Its IC50 is 10 to 50 µM.

Question: Which MIC [1] does the source give for `ON=C(Nc1cccc(F)c1)c1ccc(Cl)c(Cl)c1` [R′=3-Cl, R″=4-Cl, R′″=3-F] here?
Answer: The MIC was 40 to 125 µM (≈ 12 to 37.4 µg/mL).

Question: And the MIC [2]?
Answer: The MIC was < 40 µM.

Question: What about the MIC [3] of the same compound?
Answer: The MIC was 40 to 125 µM (≈ 12 to 37.4 µg/mL).

Question: And the IC50 [4]?
Answer: Its IC50 is 10 to 50 µM.

Question: With `ON=C(Nc1cccc(Cl)c1)c1ccc(Cl)c(C(F)(F)F)c1` [Example 64] as the compound, how does the MIC [1] read?
Answer: Its MIC is < 40 µM.

Question: And the MIC [2]?
Answer: Its MIC is < 40 µM.

Question: And the MIC [3]?
Answer: The MIC was < 40 µM.

Question: And the IC50 [4]?
Answer: Its IC50 is < 10 µM.
